pIC50: −log10 of the molar value.
Key:
[1] = tested on: IL-6; assay: Inhibition of R848-induced IL-6 release in human PBMCs, IL-6 ELISA; format: cell-based; settings: compound 24 hours, then R848 10 µg/mL 5 hours
Description: Example 3: Detection of inhibition of R848-induced IL-6 release
Cryopreserved human PBMCs (Milestone® Biotechnologies, PB010C-W) were thawed and resuspended in RPMI-1640 medium (Gibco, 22400-105) supplemented with 10% fetal bovine serum (Gibco, 10099-141), 100 U/mL penicillin, and 100 µg/mL streptomycin (Gibco, 15140122). Subsequently, 190 µL of the PBMC suspension was added to each well of 96-well clear cell culture plates (Corning, 3599) to achieve a density of 1×10^5 cells/well. The cell plates were incubated at 37°C in a 5% CO2 incubator for 30 minutes. Then, 5 µL of diluted compound solution was added to the corresponding cell-seeded wells to achieve final concentrations ranging from 0.046 to 3,000 nM. The final concentration of DMSO was 0.1%. After the compound-treated cell plate was incubated at 37°C in a 5% CO2 incubator for 24 hours, 5 µL of R848 (MCE, HY-13740) was added to achieve a final concentration of 10 µg/mL. The cell plates were incubated again at 37°C in a 5% CO2 incubator for 5 hours, then centrifuged at 1,000 rpm for 1 minute. 100 µL of the cell supernatant from each well was transferred to a new 96-well clear cell culture plate for IL-6 concentration testing.
Interleukin-6 (IL-6) ELISA assay
The IL-6 concentration in the supernatant of R848-induced human PBMCs was determined using a Human IL-6 (interleukin-6) ELISA KIT (4Bio, CHE0009-048). IL-6 standard solutions at different concentrations, ranging from 3.9 to 250 pg/mL, were prepared according to the manufacturer's instructions. 100 µL of each concentration of the IL-6 standard solution and the pre-diluted test cell supernatant samples were added separately to anti-IL-6 antibody-coated and blocked clear 96-well plates, followed by incubation at 37°C for 1.5 hours. According to the product instructions, the plates were washed, 100 µL of biotinylated antibody was added, and the plates were incubated at 37°C for 1 hour. The plates were washed, 100 µL of enzyme conjugate working solution was added. The plates were incubated at 37°C for 30 minutes, and then washed. 100 µL of chromogenic substrate was added, and the plates were incubated at 37°C for 10-20 minutes. The reaction was terminated by adding 100 µL of stop solution. After the reaction, the OD value at 450 nm was measured in absorbance mode using an Envision microplate reader (PerkinElmer). A standard curve was plotted using the corrected OD values of the various concentrations of IL-6 standard solutions. The IL-6 concentration in each cell supernatant was then determined on the basis of the corresponding concentration for the corrected OD value of the test sample on the standard curve. […] Subsequently, the IC50 value of the compound was calculated by performing non-linear curve fitting of concentration versus inhibition rate using GraphPad Prism 9.

[2] = biological target: T1, IRAK4 (Homo sapiens, UniProt Q9NWZ3); assay: Degradation of IRAK4 in THP1 cells, Western blot; format: cell-based; parameters: Degradation of IRAK4 in THP1 by compound; host or cells: THP-1; settings: THP-1 cells, 24 hours of incubation; for DC50: IRAK4 protein by Western blot, read-out: DC50; for Dmax: maximum degradation rate, read-out: Dmax
T1 sequence (Q9NWZ3 1-460): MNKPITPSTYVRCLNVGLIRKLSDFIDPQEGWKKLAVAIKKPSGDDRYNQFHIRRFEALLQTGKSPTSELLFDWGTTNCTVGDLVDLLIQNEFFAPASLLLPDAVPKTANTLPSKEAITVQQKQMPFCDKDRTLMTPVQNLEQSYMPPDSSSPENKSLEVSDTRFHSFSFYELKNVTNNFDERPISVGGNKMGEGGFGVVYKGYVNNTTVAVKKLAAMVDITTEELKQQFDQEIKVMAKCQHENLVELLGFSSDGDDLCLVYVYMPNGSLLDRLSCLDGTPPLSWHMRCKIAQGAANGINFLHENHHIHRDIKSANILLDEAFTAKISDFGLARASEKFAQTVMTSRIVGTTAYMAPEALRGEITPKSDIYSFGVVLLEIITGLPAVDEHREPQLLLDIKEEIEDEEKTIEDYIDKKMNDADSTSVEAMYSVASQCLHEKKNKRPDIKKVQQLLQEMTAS
Method in brief: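 Degradation rate derived from densitometry of IRAK4 bands versus DMSO-treated controls. Read-out: anti-IRAK4 immunoblot (10% gel, 40 μg total protein per lane, BCA-normalised) of lysates from THP1 cells incubated with compound for 24 h.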

[3] = biological target: T1, IRAK4; assay: Assay for inhibitory effect of compound on IRAK4 kinase activity (KinEASE-STK S1 HTRF kit); format: biochemical; settings: kinase 8 nM, ATP 80 µM, 37°C 90 minutes; read-out: IRAK4 HTRF IC50
Method in brief: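 HTRF assay: 8 nM IRAK4 preincubated 15 minutes at rt with compound (final 5,000–0.0254 nM, 3-fold dilutions), then 400 nM biotinylated STK1 substrate and 80 µM ATP, 90 minutes at 37°C. Eu-cryptate anti-phospho-Ser/Thr antibody and streptavidin-XL665 detection, 665/620 ratio; IC50 from nonlinear fit of inhibition.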

Row | Compound | pIC50 ([1]; PBMC) | DC50 [2] [µM] | Dmax [2] [%] | pIC50 [3] | also measured
1 | NC(=O)c1nn(-c2ccc(N3CCN(CC4CCN(c5ccc6c(c5)C(=O)N(C5CCC(=O)NC5=O)C6=O)CC4)CC3)cc2)cc1NC(=O)c1cccc(C(F)(F)F)n1 (stereo not drawn) [Compound A122] | > 8.00 | < 0.1 | > 60 | – | –
2 | Cn1c(=O)n(C2CCC(=O)NC2=O)c2cccc(N3CCC4(CCN(C(=O)c5ccc(-n6cc(NC(=O)c7cccc(C(F)(F)F)n7)c(C(N)=O)n6)cc5)C4)CC3)c21 (stereo not drawn) [Compound A135] | > 8.00 | < 0.1 | > 60 | – | –
3 | Cn1c(=O)n(C2CCC(=O)NC2=O)c2cccc(N3CCC4(CC3)CC(NCc3ccc(-n5cc(NC(=O)c6cccc(C(F)(F)F)n6)c(C(N)=O)n5)cc3)C4)c21 (stereo not drawn) [Compound A137] | > 8.00 | < 0.1 | > 60 | – | –
4 | Cn1c(=O)n(C2CCC(=O)NC2=O)c2cccc(N3CCC4(CCN(Cc5ccc(-n6cc(NC(=O)c7cccc(C(F)(F)F)n7)c(C(N)=O)n6)cc5)C4)CC3)c21 (stereo not drawn) [Compound A140] | > 8.00 | < 0.1 | > 60 | – | –
5 | COc1ccc(C(=O)N2CCN(CCN3CCN(c4ccc(-n5cc(NC(=O)c6cccc(C(F)(F)F)n6)c(C(N)=O)n5)cc4)CC3)CC2)cc1N1CCC(=O)NC1=O [Compound A143] | > 8.00 | < 0.1 | > 60 | – | –
6 | COc1ccc(C(=O)N2CCC(CCN3CCN(c4ccc(-n5cc(NC(=O)c6cccc(C(F)(F)F)n6)c(C(N)=O)n5)cc4)CC3)CC2)cc1N1CCC(=O)NC1=O [Compound A144] | > 8.00 | < 0.1 | > 60 | – | –
7 | COc1ccc(C(=O)N2CCC(CCN3CCN(c4ccc(-n5cc(NC(=O)c6cccc(C(F)(F)F)n6)c(C(F)F)n5)cc4)CC3)CC2)cc1N1CCC(=O)NC1=O [Compound A148] | 7.52 to 8.00 | 0.1 to 1 | > 60 | – | –
8 | COc1ccc(C(=O)N2CCC(CCN3CCN(c4ccc(-n5cc(NC(=O)c6cccc(C(F)(F)F)n6)c(C(N)=O)n5)cc4)CC3)C(F)(F)C2)cc1N1CCC(=O)NC1=O (stereo not drawn) [Compound A168] | > 8.00 | – | – | – | –
9 | NC(=O)c1nn(-c2ccc(N3CCN(CC4CCN(c5ccc(C(=O)NC6CCC(=O)NC6=O)cc5)CC4)CC3)cc2)cc1NC(=O)c1cccc(C(F)(F)F)n1 (stereo not drawn) [Compound A171] | 7.52 to 8.00 | – | – | – | –
10 | NC(=O)c1nn(-c2ccc(N3CCN(CC4CCN(c5ccc(N6CCC(=O)NC6=O)cc5)CC4)CC3)cc2)cc1NC(=O)c1cccc(C(F)(F)F)n1 [Compound A192, N-(3-carbamoyl-1-(4-((1-(4-(2,4-dioxotetrahydropyrimidin-1(2H)-yl)phenyl)piperidin-4-yl)methyl)piperazin-1-ylphenyl)-1H-pyrazol-4-yl)-6-(trifluoromethyl)picolinamide] | 7.52 to 8.00 | – | – | – | –
11 | NC(=O)c1nn(-c2ccc(N3CCN(CCC4CCN(c5ccc(NC6CCC(=O)NC6=O)cc5F)CC4)CC3)cc2)cc1NC(=O)c1cccc(C(F)(F)F)n1 (stereo not drawn) [Compound A194, N-(3-Carbonyl-1-(4-(4-(2-(4-(((2,6-dioxopiperidin-3-yl)amino)-2-fluorophenyl)piperidin-4-yl)ethyl)piperazin-1-yl)phenyl)-1H-pyrazol-4-yl)-6-(trifluoromethyl)picolinamide] | > 8.00 | – | – | – | –
12 | NC(=O)c1nn(-c2ccc(CN3CCC4(CC3)CCN(c3ccc5c(c3)C(=O)N(C3CCC(=O)NC3=O)C5=O)CC4)cc2)cc1NC(=O)c1cccc(C(F)(F)F)n1 (stereo not drawn) [Compound A222, N-(3-carbamoyl-1-(4-((9-(2-(2,6-dioxopiperidin-3-yl)-1,3-dioxoisoindolin-5-yl)-3,9-diazaspiro[5.5]undecan-3-yl)methyl)phenyl)-1H-pyrazol-4-yl)-6-(trifluoromethyl)picolinamide] | 7.52 to 8.00 | – | – | – | –
13 | O=C(NC1CC1)c1nn(C2CCC2)cc1NC(=O)c1cnn2ccc(-c3ccn[nH]3)nc12 [Compound A286, N-(1-cyclobutyl-3-(cyclopropylcarbamoyl)-1H-pyrazol-4-yl)-5-(1H-pyrazol-5-yl)pyrazolo[1,5-a]pyrimidine-3-carboxamide] | – | – | – | 6.00 to 7.00 | –
14 | O=C(NC1CC1)c1nn(C2CCC2)cc1NC(=O)c1cnn2ccc(-c3cn[nH]c3)nc12 [Compound A287] | – | – | – | 6.00 to 7.00 | –
15 | COc1nn(C2CCC2)cc1NC(=O)c1cnn2ccc(-c3ccn[nH]3)nc12 [Compound A288, N-(1-cyclobutyl-3-methoxy-1H-pyrazol-4-yl)-5-(1H-pyrazol-5-yl)pyrazolo[1,5-a]pyrimidine-3-carboxamide] | – | – | – | > 7.00 | –
16 | COc1nn(C2CCC2)cc1NC(=O)c1cnn2ccc(-c3cn[nH]c3)nc12 [Compound A289, N-(1-cyclobutyl-3-methoxy-1H-pyrazol-4-yl)-5-(1H-pyrazol-4-yl)pyrazolo[1,5-a]pyrimidine-3-carboxamide] | – | – | – | > 7.00 | –
17 | CC(C)(O)c1nn(C2CCC2)cc1NC(=O)c1cnn2ccc(-c3ccn[nH]3)nc12 [Compound A290, N-(1-cyclobutyl-3-(2-hydroxypropan-2-yl)-1H-pyrazol-4-yl)-5-(1H-pyrazol-5-yl)pyrazolo[1,5-a]pyrimidine-3-carboxamide] | – | – | – | 6.00 to 7.00 | –
18 | O=C(Nc1cn(C2CCC2)nc1C(F)F)c1cnn2ccc(-c3ccn[nH]3)nc12 [Compound A291, N-(1-cyclobutyl-3-(difluoromethyl)-1H-pyrazol-4-yl)-5-(1H-pyrazol-5-yl)pyrazolo[1,5-a]pyrimidine-3-carboxamide] | – | – | – | > 7.00 | –
19 | NC(=O)c1nn(C2CCC2)cc1NC(=O)c1cnn2ccc(-c3ccn[nH]3)nc12 [Compound A292, N-(3-Carbamoyl-1-cyclobutyl-1H-pyrazol-4-yl)-5-(1H-pyrazol-5-yl)pyrazolo[1,5-a]pyrimidine-3-carboxamide] | – | – | – | > 7.00 | –
20 | NS(=O)(=O)c1nn(C2CCC2)cc1NC(=O)c1cnn2ccc(-c3ccn[nH]3)nc12 [Compound A293, N-(1-cyclobutyl-3-sulfamoyl-1H-pyrazol-4-yl)-5-(1H-pyrazol-5-yl)pyrazolo[1,5-a]pyrimidine-3-carboxamide] | – | – | – | > 7.00 | –
21 | NC(=O)c1nn(-c2ccccc2)cc1NC(=O)c1cccc(-c2nc[nH]n2)n1 [Compound A457, N-(3-Carbamoyl-1-phenyl-1H-pyrazol-4-yl)-6-(1H-1,2,4-triazol-3-yl)picolinamide] | – | – | – | 6.00 to 7.00 | –
22 | N-(3-carbamoyl-1-(4-((1-(3-(2,4-dioxotetrahydropyrimidin-1(2H)-yl)-4-methoxybenzoyl)piperidin-4-yl)methyl)piperazin-1-yl)phenyl)-1H-pyrazol-4-yl)-6-(trifluoromethyl)picolinamide [Compound A175] | – | – | – | – | pIC50 [1]: > 8.00

Source: patent EP4763839A1 (Pamplona Therapeutics (Shenzhen) Co., Ltd., priority 2023, dated 2025)
